# From patent publication US20050004029A1, “Methods and compositions for treating vascular leak using hepatocyte growth factor” (priority 2001, published 2005)
# Legend:
# Format in all cases: cell-based
# [1] = test system: human alveolar epithelial cells (A549); test: Electrical resistance of A549 alveolar epithelial cells on gold microelectrodes; settings: HGF 100 ng/mL; sphingosine 1-phosphate 1 μM
# Method: FIGS. 1A-1D depict HGF-mediated increases in human transendothelial electrical resistance (TER). FIG. 1A: Human pulmonary artery endothelial cells were grown to confluence on gelatinized gold microelectrodes. Two hours prior to TER measurement, growth medium was replaced with serum-free M199. Serial-diluted HGF was added to cells at indicated concentrations and TER monitored for 2.5 hr. […] The result shown is a representative TER tracing of three independent experiments. FIG. 1B: Similar to FIG. 1A, human alveolar epithelial cells (A549) were grown on gold microelectrodes and challenged with vehicle, HGF, (100 ng/mL) or sphingosine 1-phosphate (1 μM). […]
# Electrical resistance of EC monolayers was measured using electrical cell impedance sensor system (Applied Biophysics Inc., Troy, N.Y.) as described in Garcia, J. G. N. et al. (2000) J. Appl. […] Cells grown on gold microelectrodes (10^−3 cm^2) in polycarbonate wells act as insulating particles, and the resistance across the monolayers (transendothelial electrical resistance, or TER) is measured in real time. […] The in-phase and out-of-phase voltages between the electrodes were monitored in real time with the lock-in amplifier and converted to scalar measurements of transendothelial impedance, of which resistance was the primary focus. […]
# [2] = test system: Bovine Pulmonary Artery Endothelium; test: Transendothelial electrical resistance (TER) across bovine pulmonary artery endothelium; settings: VEGF 100 ng/ml, Sph 1-P 1 μM, HGF 20 ng/ml
# Method: Bovine pulmonary artery endothelial cells were purchased from the American Type Culture Collection (ATCC®, Rockville, Md.) and utilized at passage 19-24. Cells were maintained in Medium 199 (Life Technologies, Rockville, Md.) supplemented with 20% (v/v) colostrum-free bovine serum (CFBS) (Irvine Scientific, Santa Ana, Calif.), 15 μg/ml endothelial cell growth supplement (Upstate Biotechnology, Lake Placid, N.Y.), 1% antibiotic and antimycotic, and 0.1 mM non-essential amino acids (Life Technologies). Human pulmonary artery endothelial cells were purchased from Clonetics (Walkersville, Md.), cultured in EBM-2 complete medium (Clonetics) and utilized at passage 5-10. Human alveolar epithelial cells (A549) were purchased from ATCC® and cultured in the same medium as the bovine endothelial cells, except that the endothelial cell growth supplement was omitted. All cells were maintained at 37° C. in a humidified atmosphere of 5% CO2 and 95% air.
# Electrical resistance of EC monolayers was measured using electrical cell impedance sensor system (Applied Biophysics Inc., Troy, N.Y.) as described in Garcia, J. G. N. et al. (2000) J. Appl. Physiol. 89:2333-2343. Cells grown on gold microelectrodes (10^−3 cm^2) in polycarbonate wells act as insulating particles, and the resistance across the monolayers (transendothelial electrical resistance, or TER) is measured in real time. As cells adhere on the microelectrode and intercellular cell contacts are formed or in response to agents which increase junctional integrity, the TER increases (Garcia, J. G. N. et al. (2001) J. Clin. Invest. 108:689-711). In contrast, cell retraction, rounding, or loss of adhesion is reflected by decreases in TER (Garcia, J. G. N. et al. (2000) J. Appl. Physiol. 89:2333-2343). These measurements provide a highly sensitive biophysical assay that indicates the state of cell shape, focal adhesion, and endothelial barrier function (Giaever, I. and Keese, C. R. (1993) Nature 366:591-592; Tiruppathi, C. et al. (1992) Proc. Natl. Acad. Sci. USA 89:7919-7923). All electrical resistance data are presented as normalized values. Briefly, current was applied across the electrodes by a 4000 Hz AC voltage source with an amplitude of 1 V in series with a 1 MΩ resistance to approximate a constant current source (−1 μA). The small gold electrode and the larger counter electrode (1 cm^2) were connected to a phase-sensitive lock-in amplifier (5301A; EG&G Instruments Corp, Princeton, N.J.) with a built in differential preamplifier (5316A; EG&G Instruments Corp.). The in-phase and out-of-phase voltages between the electrodes were monitored in real time with the lock-in amplifier and converted to scalar measurements of transendothelial impedance, of which resistance was the primary focus. […] For some experiments, total TER was vectorially resolved into components reflecting resistance to current flow beneath the cell layer (α) and resistance to current flow between adjacent cells (Rb) as described in Garcia et al. (2000) supra utilizing the method of Giaiver and Keese which models the endothelial monolayer mathematically (Giaever, I. and Keese, C. R. (1993) Nature 366:591-592). Thus, changes in α reflect alterations in the net state of cell-matrix adhesion, whereas changes in Rb reflect alterations in the integrity of cell-cell adhesion. TER values from each microelectrode were pooled at discrete time points and plotted versus time as the mean±standard error of the mean (Garcia et al. (2000) supra).
# [3] = test system: Rac GTPase; test: Rac GTPase activity, p21 Rac-binding domain assay; settings: HGF 10 ng/mL or Sph-1-P 1 μM for 1 or 5 min
# Method: Endothelial cells grown in 100 mm dishes were incubated with agonists in serum-free M199. Cells were lysed in 500 μl Mg^2+ lysis buffer (Upstate Biotechnology, Lake Placid, N.Y.) and homogenized by pipetting. After a brief centrifugation to remove the cell debris, 300 μl of supernatant was incubated with the agarose-conjugated p21-binding domain (PBD) of human PAK-1 (10 μg, 30 min, Upstate Biotechnology). The agarose beads were washed with 1 ml of lysis buffer 5 times and re-suspended in 30 μl of 2×SDS buffer. After 10 min centrifugation at 14,000 g, 15 μl of supernatant from each sample was subjected to electrophoresis in 15% PAGE. […] For total Rac protein measurement, 5 μl of the original cell lysates were used for electrophoresis and western analysis. […] Pulmonary artery endothelial cells were incubated with HGF (10 ng/mL) or Sph-1-P (1 μM) for 1 or 5 min. Cells were lysed, supernatants collected, and activated GTP-bound Rac was precipitated by agarose-conjugated human PAK-1 p21-binding domain and subsequently immunoblotted by anti-Rac mAb. Total Rac protein was detected using cell lysates.
# [4] = vs vehicle control, ±SEM, thrombin 100 μM
smiles,measurement,setting,value
"CCCCCCCCCCCCC/C=C/[C@@H](O)[C@@H](N)COP(=O)(O)O [Sph 1-P, sphingosine 1-phosphate, reference compound]",effect on electrical resistance of epithelial cells,[1],did enhance epithelial cell integrity
same,TER response in words,"[2]; thrombin, 10-60 min",brisk and sustained increase in TER
same,changes in TER 30 min,[2]; [4],+50 ± 6%
same,changes in TER 60 min,[2]; [4],+35 ± 4%
same,changes in TER 10 min,"[2]; vs vehicle control, ±SEM, thrombin 100 μM, (+) increased, (−) decreased",+50 ± 5%
same,Rac activity,[3],rapidly and transiently increases Rac activity
